Laboratory results taken from BindingDB's records for doi:10.1016/s0891-0618(03)00032-2 (University of Michigan, 2003).

Assays:
Mu-type opioid receptor = Mu-type opioid receptor (Rattus norvegicus, UniProt P33535)
[1] = biological target: Delta-type opioid receptor (Rattus norvegicus, UniProt P33533)
[2] = biological target: Kappa-type opioid receptor (Rattus norvegicus, UniProt P34975)
Nociceptin receptor = Nociceptin receptor (Rattus norvegicus, UniProt P35370)
Chain of Nociceptin receptor (P35370 whole entry): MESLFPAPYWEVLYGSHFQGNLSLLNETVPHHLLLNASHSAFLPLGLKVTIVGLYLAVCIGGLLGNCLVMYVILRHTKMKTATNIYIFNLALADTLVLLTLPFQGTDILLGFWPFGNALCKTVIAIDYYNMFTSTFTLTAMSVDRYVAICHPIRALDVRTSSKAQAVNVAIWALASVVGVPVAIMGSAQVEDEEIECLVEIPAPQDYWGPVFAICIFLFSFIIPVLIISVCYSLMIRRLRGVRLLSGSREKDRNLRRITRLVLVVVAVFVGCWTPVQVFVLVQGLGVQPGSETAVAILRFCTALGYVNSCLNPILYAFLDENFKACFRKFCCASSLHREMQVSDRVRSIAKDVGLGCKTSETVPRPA

Chain of Delta-type opioid receptor (P33533 whole entry): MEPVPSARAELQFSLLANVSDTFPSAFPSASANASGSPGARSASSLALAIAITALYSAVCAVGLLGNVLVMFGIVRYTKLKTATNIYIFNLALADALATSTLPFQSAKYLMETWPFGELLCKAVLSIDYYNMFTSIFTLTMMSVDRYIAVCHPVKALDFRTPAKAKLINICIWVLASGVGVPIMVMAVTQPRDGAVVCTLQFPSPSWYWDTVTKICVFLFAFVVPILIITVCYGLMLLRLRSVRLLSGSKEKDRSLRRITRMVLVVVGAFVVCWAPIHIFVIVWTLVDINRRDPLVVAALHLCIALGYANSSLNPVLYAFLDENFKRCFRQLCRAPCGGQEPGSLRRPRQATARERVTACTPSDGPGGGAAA
Chain of Kappa-type opioid receptor (P34975 whole entry): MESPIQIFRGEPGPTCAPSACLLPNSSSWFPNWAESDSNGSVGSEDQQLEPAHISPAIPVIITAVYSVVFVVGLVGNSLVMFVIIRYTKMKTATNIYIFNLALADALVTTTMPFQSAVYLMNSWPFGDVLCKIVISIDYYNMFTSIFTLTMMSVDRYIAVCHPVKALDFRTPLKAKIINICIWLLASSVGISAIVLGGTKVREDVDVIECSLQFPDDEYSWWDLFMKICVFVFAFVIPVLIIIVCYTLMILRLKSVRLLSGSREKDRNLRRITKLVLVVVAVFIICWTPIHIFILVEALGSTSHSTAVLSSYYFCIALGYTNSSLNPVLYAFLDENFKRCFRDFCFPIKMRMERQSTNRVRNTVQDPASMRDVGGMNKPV
Chain of Mu-type opioid receptor (P33535 whole entry): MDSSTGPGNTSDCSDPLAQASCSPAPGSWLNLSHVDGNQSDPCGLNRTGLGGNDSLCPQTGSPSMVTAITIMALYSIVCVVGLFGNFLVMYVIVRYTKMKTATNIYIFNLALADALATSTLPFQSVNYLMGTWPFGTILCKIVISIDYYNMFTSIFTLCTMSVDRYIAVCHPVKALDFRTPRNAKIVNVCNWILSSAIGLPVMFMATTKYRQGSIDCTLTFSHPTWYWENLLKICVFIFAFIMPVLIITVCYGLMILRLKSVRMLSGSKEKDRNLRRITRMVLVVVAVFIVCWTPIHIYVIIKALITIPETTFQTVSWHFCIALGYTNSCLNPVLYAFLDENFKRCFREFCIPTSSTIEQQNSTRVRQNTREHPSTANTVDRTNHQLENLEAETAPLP

CCC12CCN(CC3CC3)C(C(=O)c3ccc(O)cc31)C2C (centres undefined) [EKC]
Ki (Mu-type opioid receptor): 0.00193 µM
Ki [1]: 0.00246 µM
Ki [2]: 0.00212 µM

H-FSEFMRQYLVLSMQSSQRRRTLHQNGNV-NH2 [NSC_0]
Ki (Mu-type opioid receptor): > 10 µM
Ki [1]: > 10 µM
Ki [2]: > 10 µM
Ki (Nociceptin receptor): > 10 µM

CC(C)C[C@H](NC(=O)[C@H](CCCCN)NC(=O)[C@H](CCCN=C(N)N)NC(=O)[C@H](C)NC(=O)[C@H](CO)NC(=O)[C@H](CCCCN)NC(=O)[C@H](CCCN=C(N)N)NC(=O)[C@H](C)NC(=O)CNC(=O)[C@@H](NC(=O)[C@H](Cc1ccccc1)NC(=O)CNC(=O)CNC(=O)[C@@H](N)Cc1ccccc1)[C@@H](C)O)C(=O)N[C@@H](C)C(=O)N[C@@H](CC(N)=O)C(=O)N[C@@H](CCC(N)=O)C(=O)O [OFQ 1-17]
Ki (Mu-type opioid receptor): > 10 µM
Ki [1]: > 10 µM
Ki [2]: > 10 µM

H-FSEFMRQYLVLSMQSSQ-OH [OFQ II 1-17]
Ki (Mu-type opioid receptor): > 10 µM
Ki [1]: > 10 µM
Ki [2]: > 10 µM
Ki (Nociceptin receptor): > 10 µM
